Patent US10828315B2 (Madrigal Pharmaceuticals, Inc., priority 2013, dated 2020)
Read-outs that look alike come from different tables or passages of the source.

Experiments:
[1] = system: HER2; assay: HER2 degradation assay with BT-474 cell line (Example 12, FACS); type: cell-based, human
[2] = system: human breast cancer cell line BT-474; assay: Cytotoxicity assay (CellTiter-Glo, 72 h), BT-474; type: cell-based; details: BT-474, 72 hours, read-out: Cytotoxicity (IC50, nM) BT-474
Description: (§1) Cytotoxicity of SDC-TRAP molecules was determined in three cancer cell lines. […] 80 μL of CellTiter-Glo was added to each well, followed by room temperature incubation in the dark for 15 minutes. Cell was determined by luminescence. IC50 was calculated using XLfit™ software.

[3] = system: human urinary bladder cancer cell line RT-112; assay: Cytotoxicity assay (CellTiter-Glo, 72 h), RT-112; type: cell-based; details: RT-112, 72 hours, read-out: Cytotoxicity (IC50, nM) RT-112
Description: as §1

[4] = system: human urinary bladder cancer cell line SW780; assay: Cytotoxicity assay (CellTiter-Glo, 72 h), SW780; type: cell-based; details: SW780, 72 hours, read-out: Cytotoxicity (IC50, nM) SW-780
Description: as §1

[5] = Tissue Distribution Data for SDC-TRAP-0195
Description: Using the 10 mM stock solutions of the SDC-TRAP molecule and its Hsp90i binding moiety and effector moiety in DMSO, spiking solutions were prepared at 0.025, 0.05, 0.1, 0.5, 1, 5, 10, 50, 100, 250, and 500 μM in DMSO. 5 μL of each spiking solution was added to a 96-deep well plate.
Quality control standards were prepared from 5 μL of 0.1, 1, and 10 μM calibration standard spiking solution added in triplicate into 96-deep well plate and adding 50 μL of matrix (plasma or homogenized tumor).
To prepare test samples, test plasma was diluted as needed using blank plasma.
Tumor samples were pulverized in liquid nitrogen, weighed, and homogenized in PBS at 5× volume to sample weight. 50 μL of unknown plasma or homogenized tumor sample was mixed with 5 μL of DMSO. The samples were extracted by precipitating calibration standards, QC standards, and unknown samples with 200 μL of internal standard solution. The samples were mixed by vortex at room temperature for approximately 1.5 minutes, then centrifuge at 2-8° C. 150 μL of supernatant was collected and 25 μL of water added. Samples were mixed and analyzed by LC-MS/MS.
Samples of plasma, heart and tumor were excised from a euthanized mouse, homogenized in PBS at 5 times tissue weight and diluted in 5 μL DMSO/50 μL sample. Prior to analysis, 55 μL samples and calibration standards were precipitated in 200 μL methanol in 96-well plates. Samples were mixed on a vortex mixer for 1.5 minutes at 1500 rpm at room temperature, then centrifuged at 4400 rpm for 10 minutes at 8° C. 150 μL of each supernatant was transferred to a well of a new 96-well plate, and 25 μL of water was added and mixed with the sample. […] For the analysis of samples from female SCID mice, a gradient of solvent A (water/0.1% formic acid) and B (acetonitrile/0.1% formic acid) was used as in Table 2 below.
Various SDC-TRAP molecules and appropriate controls were administered to mice and after various time points the plasma and tumor concentration of these molecules was determined.

[6] = Artificial membrane permeability assay (PAMPA)
Description: Pre-coated PAMPA plates were warmed to room temperature for at least 30 minutes prior to adding assay components.
Stock solutions were prepared with the SDC-TRAP molecules to be tested. In order to make a working solution, either 50 μL of 100 μM Stock in DMSO+950 μL of PBS or 50 μL of 200 μM stock was added to 96 deep well plate, resulting in a 5 μM final concentration or a 10 μM final concentration, respectively. 3000 μL of the working solution containing each compound to be tested was added to the appropriate well of a donor PAMPA plate. 200 μL of PBS was added into the corresponding wells of an acceptor PAMPA plates.
The acceptor plate was lowered onto the donor plate and allowed to incubate for five hours. After five hours, a 50 μL aliquot was removed from each well of each plate and added into a new 96 deep-well plate.
100 μL of methanol containing an internal standard was added to each aliquot and analyzed by LC/MS.
In order to calculate the permeability for each SDC-TRAP molecule and the control molecules, the following formula was used:

[7] = Mouse plasma stability protocol, up to 1 h (Examples 16-18)
Description: 150 ng/mL solution of SDC-TRAP-0002 in methanol was prepared using the internal standard spiking solution. This solution was used to precipitate all plasma samples in the study. 200 μL was pipetted into a 96 deepwell plate over dry ice. 10 μL of 1 mM stock in DMSO was added to a 1.5 mL microfuge tube, then 990 μL of plasma. Samples were mixed by vortex, then 50 μL of each sample was added in triplicate to a 96-well plate containing internal standard solution. This was designated the 0 hour time point sample. 250 μL of the remaining plasma sample was added to each of four 96 deepwell plates—one per time point. Samples were incubated at 37° C. with gentle shaking for 0.25, 0.5, and 1 hour. After each time point, one plate of each sample was removed from the shaker and placed on wet ice for approximately 2 minutes. 50 μL at plasma aliquots (in triplicate) were added to the deepwell plate containing internal standard solution. After the last time point was extracted, the 96 deepwell plate was vortexed, then centrifuged at 2-8° C. 150 μL of supernatant was collected and 25 μL at of water was added. Samples were mixed and analyzed by LC-MS/MS.
990 μL mouse plasma aliquots from a common stock were spiked with 10 μL of 1 mM stock of one of seven SDC-TRAP samples identified in the table below. Each sample was mixed and divided into 250 μL aliquots, each representing time points 0, 15 minutes, 30 minutes or 1 hour. At the prescribed time point, 3×50 μL samples were each mixed with 200 μL of methanol containing internal standard and held on dry ice until all time point samples were extracted. The samples collectively were vortex mixed for 1.5 minutes at 1500 rpm, then centrifuged at 4400 rpm for 10 minutes at 8° C.

[8] = SDC-TRAP-0063 PK in male CD-1 mice (IV bolus); type: in vivo; details: of monitored analyte
[9] = SDC-TRAP-0063 PK in male SD rats (slow IV bolus); type: in vivo; details: of monitored analyte
[10] = % Remaining of parent after 1 h incubation in mouse plasma at 37° C. (10 μM)
[11] = dosed SDC-TRAP-0063 50 mpk IV bolus
[12] = dosed SDC-TRAP-0063 100 mpk IV bolus
[13] = dosed SDC-TRAP-0063 200 mpk IV bolus
[14] = dosed SDC-TRAP-0063 10 mpk slow IV bolus
[15] = dosed SDC-TRAP-0063 50 mpk slow IV bolus
[16] = dosed SDC-TRAP-0063 100 mpk slow IV bolus
[17] = dosed SDC-TRAP-0063 150 mpk slow IV bolus

With `CCNC(=O)c1nnc(-c2cc(C(C)C)c(O)cc2O)n1-c1ccc(CN2CCC(C(=O)N3CCC(C(=O)N[C@H]4C[C@H](O[C@H]5C[C@](O)(C(=O)CO)Cc6c(O)c7c(c(O)c65)C(=O)c5c(OC)cccc5C7=O)O[C@@H](C)[C@H]4O)CC3)CC2)cc1` [SDC-TRAP-0198, 1-(1-(4-(3-(2,4-dihydroxy-5-isopropylphenyl)-5-(ethylcarbamoyl)-4H-1,2,4-triazol-4-yl)benzyl)piperidine-4-carbonyl)-N-((2S,3S,4S,6R)-3-hydroxy-2-methyl-6-(((1S,3S)-3,5, 12-trihydroxy-3-(2-hydroxyacetyl)-10-methoxy-6,11-dioxo-1,2,3,4,6,11-hexahydrotetracen-1-yl)oxy)tetrahydro-2H-pyran-4-yl)piperidine-4-carboxamide] the IC50 ([1]; BT-474 cells, overnight) was > 10000 nM, the IC50 [2] was 786 nM and the IC50 [3] was 297 nM. The IC50 [4] was > 10000 nM.

In the case of `CCNC(=O)c1nnc(-c2cc(C(C)C)c(O)cc2O)n1-c1ccc(CN2CCC(C(=O)N3CCN(c4cc(C)c(OC(=O)Nc5cccc6c5CN(C5CCC(=O)NC5=O)C6=O)c(C)c4)CC3)CC2)cc1` (stereo not drawn) [SDC-TRAP-0195, 4-(4-(1-(4-(3-(2,4-dihydroxy-5-isopropylphenyl)-5-(ethylcarbamoyl)-4H-1,2,4-triazol-4-yl)benzyl)piperidine-4-carbonyl)piperazin-1-yl)-2,6-dimethylphenyl (2-(2,6-dioxopiperidin-3-yl)-1-oxoisoindolin-4-yl)carbamate], the IC50 [1] is reported as 49 nM, the “Plasma Conc.” value ([5]; Time (h) 0.083) is reported as 1220 µM and the “Tumor Conc.” value ([5]; Time (h) 0.083) is reported as 17.1 nmol/g of tissue. For the same molecule, the “Tumor/Plasma Ratio” value ([5]; Time (h) 0.083) was 0.0140, the “Plasma Conc.” value ([5]; Time (h) 1) was 211 µM and the “Tumor Conc.” value ([5]; Time (h) 1) was 23.0 nmol/g of tissue. The “Tumor/Plasma Ratio” value ([5]; Time (h) 1) was 0.109, the “Plasma Conc.” value ([5]; Time (h) 6) was 7.23 µM and the “Tumor Conc.” value ([5]; Time (h) 6) was 17.1 nmol/g of tissue. For the same molecule, the “Tumor/Plasma Ratio” value ([5]; Time (h) 6) was 2.36, the “Plasma Conc.” value ([5]; Time (h) 24) was 2.03 µM and the “Tumor Conc.” value ([5]; Time (h) 24) was 11.2 nmol/g of tissue. For the same molecule, the “Tumor/Plasma Ratio” value ([5]; Time (h) 24) was 5.50, the “Plasma Conc.” value ([5]; Time (h) 48) was “BQL” and the “Tumor Conc.” value ([5]; Time (h) 48) was 12.6 nmol/g of tissue. The “Mass Retention” value ([6]; incubation 5 h, first table) was 27.1% and the “% Remaining (1 h)” value [7, 10] was 98.4%.

For `CCc1c2c(nc3ccc(O)cc13)-c1cc3c(c(=O)n1C2)COC(=O)[C@@]3(CC)OC(=O)N1CCC(CCn2ccc3cc(-n4c(O)nnc4-c4cc(C(C)C)c(O)cc4O)ccc32)CC1` [SDC-TRAP-0064, (S)-4,11-diethyl-9-hydroxy-3,14-dioxo-3,4,12,14-tetrahydro-1H-pyrano[3′,4′:6,7]indolizino[1,2-b]quinolin-4-yl 4-(2-(5-(3-(2,4-dihydroxy-5-isopropylphenyl)-5-hydroxy-4H-1,2,4-triazol-4-yl)-1H-indol-1-yl)ethyl)piperidine-1-carboxylate], the IC50 [1] was 1130 nM, the “Mass Retention” value ([6]; same protocol, second table) was 48.4% and the “% Remaining (1 h)” value [7, 10] was 91.5%. For the same molecule, the “% Remaining (1 h)” value ([7]; mouse plasma, 37° C., 10 μM) was 91.5% and the “% Remaining (1 h, 37° C.)” value ([7]; mouse plasma, 37° C.) was 91.5%.

In the case of `CCNC(=O)c1nnc(-c2cc(C(C)C)c(O)cc2O)n1-c1ccc2c(ccn2CCC2CCN(C(=O)Oc3ccc4nc5c(c(CC)c4c3)Cn3c-5cc4c(c3=O)COC(=O)[C@]4(O)CC)CC2)c1` [SDC-TRAP-0205, (S)-4,11-diethyl-4-hydroxy-3,14-dioxo-3,4,12,14-tetrahydro-1H-pyrano[3′,4′:6,7]indolizino[1,2-b]quinolin-9-yl 4-(2-(5-(3-(2,4-dihydroxy-5-isopropylphenyl)-5-(ethylcarbamoyl)-4H-1,2,4-triazol-4-yl)-1H-indol-1-yl)ethyl)piperidine-1-carboxylate], the IC50 [1] is reported as 564 nM, the “Mass Retention” value ([6]; same protocol, second table) is reported as 10.9% and the “% Remaining (1 h)” value [7, 10] is reported as 58.4%. The “% Remaining (1 h, 37° C.)” value ([7]; mouse plasma, 37° C.) was 58.4%.

`CCc1c2c(nc3ccc(OC(=O)N4CCC(CCn5ccc6cc(-n7c(O)nnc7-c7cc(C(C)C)c(O)cc7O)ccc65)CC4)cc13)-c1cc3c(c(=O)n1C2)COC(=O)C3(O)CC` (stereo not drawn) [compound 0063] showed an AUCinf [8, 11] of 237 µM·h, an AUCt [8, 11] of 235 µM·h and a CL [8, 11] of 4 mL/min/kg. It also gave a Cmax [8, 11] of 414 µM, a Tmax [8, 11] of 4.98 min and a Vss [8, 11] of 0.122 L/kg. The Vz [8, 11] was 0.659 L/kg, the t1/2 [8, 11] was 114 min and the AUCinf [8, 12] was 549 µM·h. It also gave an AUCt [8, 12] of 549 µM·h, a CL [8, 12] of 3.45 mL/min/kg and a Cmax [8, 12] of 799 µM. The Tmax [8, 12] was 4.98 min, the Vss [8, 12] was 0.241 L/kg and the Vz [8, 12] was 0.747 L/kg. It also gave a t1/2 [8, 12] of 150 min, an AUCinf [8, 13] of 2884 µM·h and an AUCt [8, 13] of 2882 µM·h. The CL [8, 13] was 1.32 mL/min/kg, the Cmax [8, 13] was 1620 µM and the Tmax [8, 13] was 4.98 min. It also gave a Vss [8, 13] of 0.173 L/kg, a Vz [8, 13] of 0.307 L/kg and a t1/2 [8, 13] of 162 min. It also gave an AUCinf [9, 14] of 38.8 µM·h, an AUCt [9, 14] of 38.8 µM·h and a CL [9, 14] of 4.9 mL/min/kg. It also gave a Cmax [9, 14] of 102 µM, a Tmax [9, 14] of 4.98 min and a Vss [9, 14] of 0.0590 L/kg. The Vz [9, 14] was 0.441 L/kg, the t1/2 [9, 14] was 60 min and the AUCinf [9, 15] was 687 µM·h. The AUCt [9, 15] was 687 µM·h, the CL [9, 15] was 1.38 mL/min/kg and the Cmax [9, 15] was 659 µM. For the same molecule, the Tmax [9, 15] was 4.98 min, the Vss [9, 15] was 0.0640 L/kg and the Vz [9, 15] was 0.0924 L/kg. The t1/2 [9, 15] was 48 min, the AUCinf [9, 16] was 1786 µM·h and the AUCt [9, 16] was 1785 µM·h. It also gave a CL [9, 16] of 1.08 mL/min/kg, a Cmax [9, 16] of 1210 µM and a Tmax [9, 16] of 4.98 min. For the same molecule, the Vss [9, 16] was 0.0654 L/kg, the Vz [9, 16] was 0.153 L/kg and the t1/2 [9, 16] was 96 min. The AUCinf [9, 17] was 5302 µM·h, the AUCt [9, 17] was 5302 µM·h and the CL [9, 17] was 0.547 mL/min/kg. For the same molecule, the Cmax [9, 17] was 1900 µM, the Tmax [9, 17] was 30 min and the Vss [9, 17] was 0.0663 L/kg. For the same molecule, the Vz [9, 17] was 0.0855 L/kg and the t1/2 [9, 17] was 108 min.

With `CCNC(=O)c1nnc(-c2cc(C(C)C)c(O)cc2O)n1-c1ccc2c(ccn2CCC2CCN(C(=O)O[C@]3(CC)C(=O)OCc4c3cc3n(c4=O)Cc4c-3nc3ccc(O)cc3c4CC)CC2)c1` [SDC-TRAP-0208, (S)-4,11-diethyl-9-hydroxy-3,14-dioxo-3,4,12,14-tetrahydro-1H-pyrano[3′,4′: 6,7]indolizino[1,2-b]quinolin-4-yl 4-(2-(5-(3-(2,4-dihydroxy-5-isopropylphenyl)-5-(ethylcarbamoyl)-4H-1,2,4-triazol-4-yl)-1H-indol-1-yl)ethyl)piperidine-1-carboxylate] the IC50 [1] was 480 nM, the “Mass Retention” value ([6]; same protocol, second table) was 25.0% and the “% Remaining (1 h)” value [7, 10] was 86.1%. For the same molecule, the “% Remaining (1 h, 37° C.)” value ([7]; mouse plasma, 37° C.) was 86.1%.

In the case of `COc1cccc2c1C(=O)c1c(O)c3c(c(O)c1C2=O)C[C@@](O)(/C(CO)=N/NC(=O)CCn1ccc2cc(-n4c(O)nnc4-c4cc(C(C)C)c(O)cc4O)ccc21)C[C@@H]3O[C@H]1C[C@H](N)[C@H](O)[C@H](C)O1` [SDC-TRAP-0219, (E)-N′-(1-((2S,4S)-4-(((2R,4S,5S,6S)-4-amino-5-hydroxy-6-methyltetrahydro-2H-pyran-2-yl)oxy)-2,5,12-trihydroxy-7-methoxy-6,11-dioxo-1,2,3,4,6,11-hexahydrotetracen-2-yl)-2-hydroxyethylidene)-3-(5-(3-(2,4-dihydroxy-5-isopropylphenyl)-5-hydroxy-4H-1,2,4-triazol-4-yl)-1H-indol-1-yl)propanehydrazide], the IC50 [2] is reported as > 10000 nM, the IC50 [3] is reported as 973 nM and the IC50 [4] is reported as > 10000 nM.

With `CC(C)c1cc(-c2nnc(O)n2-c2ccc3c(c2)CN(C(=O)c2ccc(CCc4c[nH]c5nc(N)[nH]c(=O)c45)cc2)C3)c(O)cc1O` [SDC-TRAP-0093, 2-amino-5-(4-(5-(3-(2,4-dihydroxy-5-isopropylphenyl)-5-hydroxy-4H-1,2,4-triazol-4-yl)isoindoline-2-carbonyl)phenethyl)-3H-pyrrolo[2,3-d]pyrimidin-4(7H)-one] the IC50 [2] was 1540 nM, the IC50 [3] was 1290 nM and the IC50 [4] was > 10000 nM.
